From patent US4814329A, “Antihyperlipoproteinemic 5-substituted sulfur-containing benzimidazole derivatives” (Richter Gedeon Vegyeszeti Gyar R.T., priority 1985, dated 1989)
Where a name gives a salt, the structure may show the parent alone. Read-outs that look alike come from different tables or passages of the source.

Columns and labels:
[1] = system: rats fed with cholesterol; assay: in vivo antihyperlipoproteinemic test, rats fed cholesterol fodder for 7 days (Table 1); set-up: species or system Whistar hannover male rats; conditions: rat; for change in vivo at 100 mg/kg / change in vivo at 30 mg/kg: po; for change in vivo at 100 mg/kg: 100.0 mg/kg p.o.; for change in vivo at 30 mg/kg: 30.0 mg/kg p.o.
Text: (§1) Whistar hannover male rats weighing 140-160 g were fed for 7 days with a rat fodder supplemented with 1.5% of cholesterol, 0.5% of sodium cholate and 5% of solid fat. (Schurr, P. E.; Schultz, J. R., Day, D. E.; Atherosclerosis Drug Discovery Ed.: C. E. Day, Plenum, New York 215 (1976) and Acta Pharm. Hung., 49, 182. (1979) During this time the total cholesterol level of the serum increased with 200-250% compared to the normal level, while the amount of the HDL chloesterol diminished by 45-50%. Groups consisting of six animals were formed. The compounds of the invention were administered orally starting on the fourth day of the addition of the cholesterol fodder and it was continued by the end of the experiments, by the seventh day, in one or two doses. Then after a 18 hour starving the animals were bled to death under etheric narcosis on the 8th day. The blood samples were centrifuged and the serum total cholesterol and the HDL cholesterol were determined by Backmann enzymatic test, while the triglyceride concentration of the serum was determined by Van Handel's method (J. Lab.: Clin. Med. 41, 486 (1953). The amount of the LDL+VLDL was measured by manganese precipitation turbidimetrically (Schurr, P. E., Schulz, J. R., Day, C. E.: Atherosclerosis Drug Discovery Ed.: C. E. Day, Plenum Press, New York 215 (1976). The antiaggreagtion activity was measured in vitro on human plasm being rich in thrombocytes by a Chrono-log aggregometer. The aggregation was induced by ADP, adrenaline, collagen and arachidonic acid. […]. The lipidperoxidation was induced by N-ethyl-alenicimide (Arzneimittel-Forschung 29, 981 (1979).

[2] = system: rats with the cholesterol diet; assay: in vivo test in rats with the cholesterol diet, 10 day treatments (Table 2); conditions: rat, 10 day treatment, 100.0 mg/kg p.o.
Procedure: as §1, with “Whistar hannover male rats weighing 140-160 g were fed for 7 days with a rat fodder supplemented with 1.5% of cholesterol, 0.5% of sodium cholate and 5% of solid fat.” left out, “The compounds of the invention were administered orally starting on the fourth day of the addition of the cholesterol fodder and it was continued by the end of the experiments, by the seventh day, in one or two doses.” left out
The affect of compound no. 0202479 to the rats with the
cholesterol diet in 10 day treatments

[3] = system: platelet aggregation; conditions: cited from earlier work
[4] = read-out: HDL cholesterol % change
[5] = read-out: serum cholesterol change
[6] = serum, read-out: triglyceride change

Compound `CCOC(=O)C(C)(C)Oc1ccc(Cl)cc1` [Clofibrate, 2-(4-chlorophenoxy)isobutyric ethyl ester, reference compound] has a change in vivo at 100 mg/kg [1, 4] of -20%, a change in vivo at 100 mg/kg ([1]; read-out: LDL + VLDL % change) of -11.2% and a change in vivo at 100 mg/kg [1, 5] of -24.7%. For the same compound, the change in vivo at 100 mg/kg [1, 6] was -20%, the “Serum cholesterol percentile change” value [2] was -23.0 percentile change and the “HDL cholesterol percentile change” value ([2]; ** P 0.01) was -7.4 percentile change. The “LDL + VLDL percentile change” value ([2]; ** P 0.01) was -37.9 percentile change, the triglyceride percentile change ([2]; ** P 0.01) was -24.5 percentile change and the IC50 ([3]; ADP induced aggregation, read-out: medium inhibitory concentration, ADP) was 100 µM. For the same compound, the IC50 ([3]; adrenaline induced aggregation, read-out: medium inhibitory concentration, Adrenaline) was 700 µM, the IC50 ([3]; arachidonic acid induced aggregation, read-out: medium inhibitory concentration, Arachidonic acid) was 5000 µM and the IC50 ([3]; collagen induced aggregation, read-out: medium inhibitory concentration, Collagene) was 1700 µM. For the same compound, the “inhibition of aggregation induced by arachidonic acid, in words” value ([3]; compared with compound at 250 μM) was “ineffective”.
For `CC(=O)CCn1c(=S)n(CCC(C)=O)c2cc(Cc3ccccc3)ccc21` [compound 0200058, 1,3-bis(3-Oxo-butyl)-5-benzyl-2-thioxo-benzimidazole], the change in vivo at 30 mg/kg [1, 4] was 30%, the change in vivo at 30 mg/kg ([1]; read-out: LDL + VLDL % change) was -19.4% and the change in vivo at 30 mg/kg [1, 5] was -14%. For the same compound, the change in vivo at 100 mg/kg [1, 4] was 44.9%, the change in vivo at 100 mg/kg ([1]; read-out: LDL + VLDL % change) was -9.4% and the change in vivo at 100 mg/kg [1, 5] was -10.6%. For the same compound, the change in vivo at 30 mg/kg [1, 6] was 1%, the change in vivo at 100 mg/kg [1, 6] was 12.8% and the “increase of HDL(-cholesterol)” value ([1]; 100 mg/kg) was 45%. The “total cholesterol of the serum, in words” value ([1]; 100 mg/kg) was “smaller decrease of the level of the total cholesterol of the serum”.
For `O=C(O)CC(Sc1nc2ccc(C(=O)c3ccccc3)cc2[nH]1)C(=O)O` (stereo not drawn) [compound 0200086, S-(5-Benzoyl-2-benzimidazolyl)-2-thio-succinic acid], the change in vivo at 30 mg/kg [1, 4] was -35%, the change in vivo at 30 mg/kg ([1]; read-out: LDL + VLDL % change) was -22.1% and the change in vivo at 30 mg/kg [1, 5] was -26%. For the same compound, the change in vivo at 100 mg/kg [1, 4] was 19.4%, the change in vivo at 100 mg/kg ([1]; read-out: LDL + VLDL % change) was -24.8% and the change in vivo at 100 mg/kg [1, 5] was -35.4%. The change in vivo at 30 mg/kg [1, 6] was -24.9% and the change in vivo at 100 mg/kg [1, 6] was -27.2%.
`O=C(O)CC(Sc1nc2ccc(Cc3ccccc3)cc2[nH]1)C(=O)O` (stereo not drawn) [compound 0200131, S-(5-Benzyl-2-benzimidazolyl)-2-thio-succinic acid] showed a change in vivo at 30 mg/kg [1, 4] of 10%, a change in vivo at 30 mg/kg ([1]; read-out: LDL + VLDL % change) of -17.5% and a change in vivo at 30 mg/kg [1, 5] of -17.4%. For the same compound, the change in vivo at 100 mg/kg [1, 4] was 57%, the change in vivo at 100 mg/kg ([1]; read-out: LDL + VLDL % change) was -5.9% and the change in vivo at 100 mg/kg [1, 5] was -16.9%. For the same compound, the change in vivo at 30 mg/kg [1, 6] was -18.8% and the change in vivo at 100 mg/kg [1, 6] was -25.4%.
Compound `CC(=O)CCn1c(=S)[nH]c2cc(Cc3ccccc3)ccc21` [compound 0200427, 1-(5-Benzyl-2-thioxo-1-benzimidazolyl)-3-butanone] has a change in vivo at 30 mg/kg [1, 4] of -17.7%, a change in vivo at 30 mg/kg ([1]; read-out: LDL + VLDL % change) of -58.2% and a change in vivo at 30 mg/kg [1, 5] of -45.5%. The change in vivo at 100 mg/kg [1, 4] was -12.1%, the change in vivo at 100 mg/kg ([1]; read-out: LDL + VLDL % change) was -54.4% and the change in vivo at 100 mg/kg [1, 5] was -51.7%. The change in vivo at 30 mg/kg [1, 6] was -63.5%, the change in vivo at 100 mg/kg [1, 6] was -67.2% and the “HDL level, in words” value ([1]; 100 mg/kg) was “decreased the HDL level, though in smaller extent”. The “decrease of the LDL+VLDL level” value ([1]; 100 mg/kg) was 54.4%, the “decrease of the serum triglyceride” value ([1]; 100 mg/kg) was 67.2% and the “decrease of the total serum cholesterol level” value ([1]; 100 mg/kg) was 51.7%. For the same compound, the “overall lipid/lipoprotein activity, in words” value ([1]; 100 mg/kg) was “Especially great serum lipid decreasing activity”.
Work on `CC(=O)CSc1nc2ccc(Cc3ccccc3)cc2[nH]1` [compound 0202002, 1-((5-benzyl-2-benzimidazolyl)thio)-2-propanone] yielded a change in vivo at 30 mg/kg [1, 4] of -16.9%, a change in vivo at 30 mg/kg ([1]; read-out: LDL + VLDL % change) of -0.38% and a change in vivo at 30 mg/kg [1, 5] of -22%. For the same compound, the change in vivo at 100 mg/kg [1, 4] was -16.9%, the change in vivo at 100 mg/kg ([1]; read-out: LDL + VLDL % change) was -55.8% and the change in vivo at 100 mg/kg [1, 5] was -68%. It also gave a change in vivo at 30 mg/kg [1, 6] of 27.8% and a change in vivo at 100 mg/kg [1, 6] of -29.4%.
`Br.C=CCSc1nc2ccc(Cc3ccccc3)cc2[nH]1` [compound 0202154, 5-Benzyl-2-(2-propenylthio)-benzimidazole hydrobromide] gave a change in vivo at 30 mg/kg [1, 4] of 27%, a change in vivo at 30 mg/kg ([1]; read-out: LDL + VLDL % change) of -38.1% and a change in vivo at 30 mg/kg [1, 5] of -34.5%. It also gave a change in vivo at 100 mg/kg [1, 4] of 71.3%, a change in vivo at 100 mg/kg ([1]; read-out: LDL + VLDL % change) of -57.5% and a change in vivo at 100 mg/kg [1, 5] of -49.3%. The change in vivo at 30 mg/kg [1, 6] was -30%, the change in vivo at 100 mg/kg [1, 6] was -25.3% and the “decrease of the LDL+VLDL level” value ([1]; 100 mg/kg) was 57.5%. For the same compound, the “decrease of the serum triglyceride” value ([1]; 100 mg/kg) was 25.3%, the “decrease of the total serum cholesterol level” value ([1]; 100 mg/kg) was 49.3% and the “increase of HDL(-cholesterol)” value ([1]; 100 mg/kg) was 71.3%. For the same compound, the “overall lipid/lipoprotein activity, in words” value ([1]; 100 mg/kg) was “very effective”.
With `OCCCSc1nc2ccc(Cc3ccccc3)cc2[nH]1` [compound 0202367, 5-Benzyl-2-(3-hydroxypropylthio)-benzimidazole] the change in vivo at 30 mg/kg [1, 4] was 47.1%, the change in vivo at 30 mg/kg ([1]; read-out: LDL + VLDL % change) was -45.2% and the change in vivo at 30 mg/kg [1, 5] was -37.4%. For the same compound, the change in vivo at 100 mg/kg [1, 4] was 26%, the change in vivo at 100 mg/kg ([1]; read-out: LDL + VLDL % change) was -50.7% and the change in vivo at 100 mg/kg [1, 5] was -42.6%. The change in vivo at 30 mg/kg [1, 6] was -19% and the change in vivo at 100 mg/kg [1, 6] was -16.1%.
In the case of `OCCSc1nc2ccc(Cc3ccccc3)cc2[nH]1` [compound 0202377, 5-Benzyl-2-(2-hydroxyethylthio)-benzimidazole], the change in vivo at 30 mg/kg [1, 4] is reported as -13.5%, the change in vivo at 30 mg/kg ([1]; read-out: LDL + VLDL % change) is reported as 1% and the change in vivo at 30 mg/kg [1, 5] is reported as -36.5%. The change in vivo at 100 mg/kg [1, 4] was 61.2%, the change in vivo at 100 mg/kg ([1]; read-out: LDL + VLDL % change) was -14.5% and the change in vivo at 100 mg/kg [1, 5] was -52.4%. The change in vivo at 30 mg/kg [1, 6] was 58%, the change in vivo at 100 mg/kg [1, 6] was 116% and the “LDL+VLDL level, in words” value ([1]; 100 mg/kg) was “decreased is smaller extent”. For the same compound, the “decrease of the total serum cholesterol level” value ([1]; 100 mg/kg) was 52.4 and the “increase of HDL(-cholesterol)” value ([1]; 100 mg/kg) was 61.2%.
With `C#CCSc1nc2ccc(Cc3ccccc3)cc2[nH]1` [compound 0202647, 5-Benzyl-2-(2-propinylthio)-benzimidazole] the “decrease of the LDL+VLDL level” value ([1]; 100 mg/kg) was 41.5, the “decrease of the total serum cholesterol level” value ([1]; 100 mg/kg) was 34.5 and the “increase of HDL(-cholesterol)” value ([1]; 100 mg/kg) was 49%. The “overall lipid/lipoprotein activity, in words” value ([1]; 100 mg/kg) was “especially excellent activity”.
With `CCOC(=O)CC(=O)CSc1nc2ccc(Cc3ccccc3)cc2[nH]1` [compound 0203232, 4-[(5-Benzyl-2-benzimidazolyl)thio]acetoacetic acid ethylester hydrochloride] the change in vivo at 30 mg/kg [1, 4] was 6.8%, the change in vivo at 30 mg/kg ([1]; read-out: LDL + VLDL % change) was -27.6% and the change in vivo at 30 mg/kg [1, 5] was -32.1%. The change in vivo at 100 mg/kg [1, 4] was 6.8%, the change in vivo at 100 mg/kg ([1]; read-out: LDL + VLDL % change) was -45.9% and the change in vivo at 100 mg/kg [1, 5] was -48.6%. It also gave a change in vivo at 30 mg/kg [1, 6] of 29.3% and a change in vivo at 100 mg/kg [1, 6] of -18.3%.
